Assay results reported in the NIST ThermoML archive (doi:10.1021/je700428f).
± gives the expanded uncertainty stated by the source.

Experiment: xn = mol fraction of the nth substance listed
Settings: 101 kPa, Liquid; for viscosity: Capillary tube (Ostwald / Ubbelohde) method

## CCCCCCCCC [nonane] + COC(C)(C)C
308.15 K, x2 = 0.6998
  viscosity: 0.386 ± 0.009 mPa·s
308.15 K, x2 = 0.7975
  viscosity: 0.357 ± 0.008 mPa·s
308.15 K, x2 = 0
  mass density: 706.011 ± 0.61 kg/m3
308.15 K, x2 = 0.1085
  mass density: 706.97 ± 0.61 kg/m3
308.15 K, x2 = 0.1722
  mass density: 707.6 ± 0.6 kg/m3
308.15 K, x2 = 0.3037
  mass density: 709.03 ± 0.6 kg/m3
308.15 K, x2 = 0.4011
  mass density: 710.36 ± 0.59 kg/m3
308.15 K, x2 = 0.5008
  mass density: 711.93 ± 0.59 kg/m3
308.15 K, x2 = 0.6005
  mass density: 713.77 ± 0.58 kg/m3
308.15 K, x2 = 0.6992
  mass density: 715.84 ± 0.58 kg/m3
308.15 K, x2 = 0.8005
  mass density: 718.35 ± 0.58 kg/m3
308.15 K, x2 = 0.8925
  mass density: 721.04 ± 0.58 kg/m3
313.15 K, x2 = 0
  viscosity: 0.555 ± 0.009 mPa·s
  mass density: 702.076 ± 0.62 kg/m3
313.15 K, x2 = 0.1006
  viscosity: 0.529 ± 0.009 mPa·s
313.15 K, x2 = 0.2026
  viscosity: 0.498 ± 0.009 mPa·s
313.15 K, x2 = 0.2995
  viscosity: 0.472 ± 0.009 mPa·s
313.15 K, x2 = 0.4045
  viscosity: 0.446 ± 0.009 mPa·s
313.15 K, x2 = 0.5003
  viscosity: 0.421 ± 0.009 mPa·s
313.15 K, x2 = 0.6035
  viscosity: 0.391 ± 0.009 mPa·s
313.15 K, x2 = 0.6998
  viscosity: 0.367 ± 0.008 mPa·s
313.15 K, x2 = 0.1085
  mass density: 702.96 ± 0.61 kg/m3
313.15 K, x2 = 0.1722
  mass density: 703.52 ± 0.61 kg/m3
313.15 K, x2 = 0.3037
  mass density: 704.82 ± 0.6 kg/m3
313.15 K, x2 = 0.4011
  mass density: 706.05 ± 0.6 kg/m3
313.15 K, x2 = 0.5008
  mass density: 707.49 ± 0.59 kg/m3
313.15 K, x2 = 0.6005
  mass density: 709.18 ± 0.59 kg/m3
313.15 K, x2 = 0.6992
  mass density: 711.09 ± 0.59 kg/m3
313.15 K, x2 = 0.8005
  mass density: 713.41 ± 0.58 kg/m3
313.15 K, x2 = 0.8925
  mass density: 715.91 ± 0.58 kg/m3
318.15 K, x2 = 0
  viscosity: 0.522 ± 0.009 mPa·s
  mass density: 698.124 ± 0.63 kg/m3
318.15 K, x2 = 0.1006
  viscosity: 0.498 ± 0.009 mPa·s
318.15 K, x2 = 0.2026
  viscosity: 0.471 ± 0.009 mPa·s
318.15 K, x2 = 0.2995
  viscosity: 0.446 ± 0.009 mPa·s
318.15 K, x2 = 0.4045
  viscosity: 0.422 ± 0.009 mPa·s
318.15 K, x2 = 0.5003
  viscosity: 0.401 ± 0.009 mPa·s
318.15 K, x2 = 0.6035
  viscosity: 0.372 ± 0.008 mPa·s
318.15 K, x2 = 0.6998
  viscosity: 0.348 ± 0.008 mPa·s
318.15 K, x2 = 0.1085
  mass density: 698.89 ± 0.62 kg/m3
318.15 K, x2 = 0.1722
  mass density: 699.42 ± 0.62 kg/m3
318.15 K, x2 = 0.3037
  mass density: 700.6 ± 0.61 kg/m3
318.15 K, x2 = 0.4011
  mass density: 701.71 ± 0.6 kg/m3
318.15 K, x2 = 0.5008
  mass density: 703.01 ± 0.6 kg/m3
318.15 K, x2 = 0.6005
  mass density: 704.56 ± 0.6 kg/m3
318.15 K, x2 = 0.6992
  mass density: 706.3 ± 0.59 kg/m3
318.15 K, x2 = 0.8005
  mass density: 708.45 ± 0.59 kg/m3
318.15 K, x2 = 0.8925
  mass density: 710.72 ± 0.59 kg/m3
323.15 K, x2 = 0
  viscosity: 0.493 ± 0.009 mPa·s
  mass density: 694.151 ± 0.63 kg/m3
323.15 K, x2 = 0.1006
  viscosity: 0.47 ± 0.009 mPa·s
323.15 K, x2 = 0.2026
  viscosity: 0.446 ± 0.009 mPa·s
323.15 K, x2 = 0.2995
  viscosity: 0.423 ± 0.009 mPa·s
323.15 K, x2 = 0.4045
  viscosity: 0.402 ± 0.009 mPa·s
323.15 K, x2 = 0.5003
  viscosity: 0.382 ± 0.009 mPa·s
323.15 K, x2 = 0.6035
  viscosity: 0.354 ± 0.008 mPa·s
323.15 K, x2 = 0.1085
  mass density: 694.83 ± 0.63 kg/m3
323.15 K, x2 = 0.1722
  mass density: 695.3 ± 0.62 kg/m3
323.15 K, x2 = 0.3037
  mass density: 696.34 ± 0.62 kg/m3
323.15 K, x2 = 0.4011
  mass density: 697.34 ± 0.61 kg/m3
323.15 K, x2 = 0.5008
  mass density: 698.51 ± 0.61 kg/m3
323.15 K, x2 = 0.6005
  mass density: 699.89 ± 0.6 kg/m3
323.15 K, x2 = 0.6992
  mass density: 701.46 ± 0.6 kg/m3
323.15 K, x2 = 0.8005
  mass density: 703.35 ± 0.6 kg/m3
323.15 K, x2 = 0.8925
  mass density: 705.48 ± 0.59 kg/m3
328.15 K, x2 = 0
  viscosity: 0.466 ± 0.009 mPa·s
  mass density: 690.165 ± 0.64 kg/m3
328.15 K, x2 = 0.1006
  viscosity: 0.445 ± 0.009 mPa·s
328.15 K, x2 = 0.2026
  viscosity: 0.424 ± 0.009 mPa·s
328.15 K, x2 = 0.2995
  viscosity: 0.402 ± 0.009 mPa·s
328.15 K, x2 = 0.4045
  viscosity: 0.383 ± 0.008 mPa·s
328.15 K, x2 = 0.5003
  viscosity: 0.364 ± 0.008 mPa·s
328.15 K, x2 = 0.1085
  mass density: 690.74 ± 0.63 kg/m3
328.15 K, x2 = 0.1722
  mass density: 691.16 ± 0.63 kg/m3
328.15 K, x2 = 0.3037
  mass density: 692.06 ± 0.62 kg/m3
328.15 K, x2 = 0.4011
  mass density: 692.94 ± 0.62 kg/m3
328.15 K, x2 = 0.5008
  mass density: 693.97 ± 0.61 kg/m3
328.15 K, x2 = 0.6005
  mass density: 695.19 ± 0.61 kg/m3
328.15 K, x2 = 0.6992
  mass density: 696.59 ± 0.61 kg/m3
328.15 K, x2 = 0.8005
  mass density: 698.27 ± 0.6 kg/m3
333.15 K, x2 = 0
  viscosity: 0.442 ± 0.009 mPa·s
  mass density: 686.154 ± 0.64 kg/m3
333.15 K, x2 = 0.1006
  viscosity: 0.423 ± 0.009 mPa·s
333.15 K, x2 = 0.2026
  viscosity: 0.404 ± 0.009 mPa·s
333.15 K, x2 = 0.2995
  viscosity: 0.383 ± 0.009 mPa·s
333.15 K, x2 = 0.4045
  viscosity: 0.365 ± 0.008 mPa·s
333.15 K, x2 = 0.5003
  viscosity: 0.347 ± 0.008 mPa·s
333.15 K, x2 = 0.1085
  mass density: 686.64 ± 0.64 kg/m3
333.15 K, x2 = 0.1722
  mass density: 686.99 ± 0.63 kg/m3
333.15 K, x2 = 0.3037
  mass density: 687.76 ± 0.63 kg/m3
333.15 K, x2 = 0.4011
  mass density: 688.5 ± 0.62 kg/m3
333.15 K, x2 = 0.5008
  mass density: 689.39 ± 0.62 kg/m3
333.15 K, x2 = 0.6005
  mass density: 690.45 ± 0.62 kg/m3
333.15 K, x2 = 0.6992
  mass density: 691.66 ± 0.61 kg/m3
333.15 K, x2 = 0.8005
  mass density: 693.14 ± 0.61 kg/m3
338.15 K, x2 = 0
  viscosity: 0.42 ± 0.009 mPa·s
  mass density: 682.116 ± 0.65 kg/m3
338.15 K, x2 = 0.1006
  viscosity: 0.402 ± 0.009 mPa·s
338.15 K, x2 = 0.2026
  viscosity: 0.386 ± 0.009 mPa·s
338.15 K, x2 = 0.2995
  viscosity: 0.366 ± 0.008 mPa·s
338.15 K, x2 = 0.4045
  viscosity: 0.348 ± 0.008 mPa·s
338.15 K, x2 = 0.1085
  mass density: 682.52 ± 0.64 kg/m3
338.15 K, x2 = 0.1722
  mass density: 682.79 ± 0.64 kg/m3
338.15 K, x2 = 0.3037
  mass density: 683.42 ± 0.63 kg/m3
338.15 K, x2 = 0.4011
  mass density: 684.02 ± 0.63 kg/m3
338.15 K, x2 = 0.5008
  mass density: 684.76 ± 0.63 kg/m3
338.15 K, x2 = 0.6005
  mass density: 685.66 ± 0.62 kg/m3
338.15 K, x2 = 0.6992
  mass density: 686.68 ± 0.62 kg/m3
338.15 K, x2 = 0.8005
  mass density: 687.95 ± 0.62 kg/m3
343.15 K, x2 = 0
  viscosity: 0.399 ± 0.009 mPa·s
  mass density: 678.06 ± 0.66 kg/m3
343.15 K, x2 = 0.1006
  viscosity: 0.383 ± 0.009 mPa·s
343.15 K, x2 = 0.2026
  viscosity: 0.368 ± 0.008 mPa·s
343.15 K, x2 = 0.2995
  viscosity: 0.351 ± 0.008 mPa·s
343.15 K, x2 = 0.1085
  mass density: 678.37 ± 0.65 kg/m3
343.15 K, x2 = 0.1722
  mass density: 678.57 ± 0.65 kg/m3
343.15 K, x2 = 0.3037
  mass density: 679.05 ± 0.64 kg/m3
343.15 K, x2 = 0.4011
  mass density: 679.52 ± 0.64 kg/m3
343.15 K, x2 = 0.5008
  mass density: 680.11 ± 0.63 kg/m3
343.15 K, x2 = 0.6005
  mass density: 680.83 ± 0.63 kg/m3
348.15 K, x2 = 0
  viscosity: 0.38 ± 0.008 mPa·s
  mass density: 673.979 ± 0.66 kg/m3
348.15 K, x2 = 0.1006
  viscosity: 0.366 ± 0.008 mPa·s
348.15 K, x2 = 0.2026
  viscosity: 0.352 ± 0.008 mPa·s
348.15 K, x2 = 0.1085
  mass density: 674.19 ± 0.66 kg/m3
348.15 K, x2 = 0.1722
  mass density: 674.31 ± 0.65 kg/m3
348.15 K, x2 = 0.3037
  mass density: 674.64 ± 0.65 kg/m3
348.15 K, x2 = 0.4011
  mass density: 674.98 ± 0.64 kg/m3
353.15 K, x2 = 0
  viscosity: 0.362 ± 0.008 mPa·s
  mass density: 669.872 ± 0.67 kg/m3
353.15 K, x2 = 0.1006
  viscosity: 0.35 ± 0.008 mPa·s
353.15 K, x2 = 0.2026
  viscosity: 0.338 ± 0.008 mPa·s
353.15 K, x2 = 0.1085
  mass density: 669.95 ± 0.66 kg/m3
353.15 K, x2 = 0.1722
  mass density: 670.02 ± 0.66 kg/m3
353.15 K, x2 = 0.3037
  mass density: 670.19 ± 0.66 kg/m3
353.15 K, x2 = 0.4011
  mass density: 670.38 ± 0.65 kg/m3
358.15 K, x2 = 0
  viscosity: 0.346 ± 0.008 mPa·s
  mass density: 665.73 ± 0.68 kg/m3
358.15 K, x2 = 0.1006
  viscosity: 0.335 ± 0.008 mPa·s
358.15 K, x2 = 0.1085
  mass density: 665.71 ± 0.67 kg/m3
358.15 K, x2 = 0.1722
  mass density: 665.7 ± 0.67 kg/m3
358.15 K, x2 = 0.3037
  mass density: 665.7 ± 0.66 kg/m3
358.15 K, x2 = 0.4011
  mass density: 665.75 ± 0.66 kg/m3
363.15 K, x2 = 0
  mass density: 661.557 ± 0.68 kg/m3
363.16 K, x2 = 0.1085
  mass density: 661.43 ± 0.68 kg/m3
363.16 K, x2 = 0.1722
  mass density: 661.33 ± 0.67 kg/m3
363.16 K, x2 = 0.3037
  mass density: 661.17 ± 0.67 kg/m3
